# Results from patent US9943504B2, “Arginine methyltransferase inhibitors and uses thereof” (Epizyme, Inc., priority 2013, dated 2018).
# Molecular target: T1, human PRMT6 (Homo sapiens, UniProt Q96LA8)
# T1 construct: Flag-PRMT6-His was eluted with 200 ug/ml FLAG peptide in the same buffer; made in house; host or cells: HEK 293F cells (BacMam baculovirus)
# Experiment: PRMT6 Biochemical Assay
# Conditions: biochemical evaluation, peptide substrate
# Text: S-adenosylmethionine (SAM), S-adenosylhomocysteine (SAH), bicine, Tween20, dimethylsulfoxide (DMSO), bovine skin gelatin (BSG), sodium butyrate and Tris(2-carboxyethyl)phosphine hydrochloride solution (TCEP) were purchased from Sigma-Aldrich at the highest level of purity possible. ^3H-SAM was purchase from American Radiolabeled Chemicals with a specific activity of 80 Ci/mmol. 384-well streptavidin Flashplates were purchased from PerkinElmer.
# Peptide representative of human histone H4 residues 36-50 was synthesized with an N-terminal linker-affinity tag motif and a C-terminal amide cap by 21st Century Biochemicals. The peptide was purified by high-performance liquid chromatography (HPLC) to greater than 95% purity and confirmed by liquid chromatography mass spectrometry (LC-MS). The sequence was Biot-Ahx-[…]-amide and contained a monomethylated lysine at position 44 (SEQ ID NO.: 5). […]
# The assays were all performed in a buffer consisting of 20 mM Bicine (pH=7.6), 1 mM TCEP, 0.005% BSG, and 0.002% Tween 20, prepared on the day of use. […] The plates were then read in a PerkinElmer TopCount plate reader to measure the quantity of ^3H-labeled peptide bound to the Flashplate surface, measured as disintegrations per minute (dpm) or alternatively, referred to as counts per minute (cpm). […]
# T1 sequence (Q96LA8 with tags, fused parts or gaps): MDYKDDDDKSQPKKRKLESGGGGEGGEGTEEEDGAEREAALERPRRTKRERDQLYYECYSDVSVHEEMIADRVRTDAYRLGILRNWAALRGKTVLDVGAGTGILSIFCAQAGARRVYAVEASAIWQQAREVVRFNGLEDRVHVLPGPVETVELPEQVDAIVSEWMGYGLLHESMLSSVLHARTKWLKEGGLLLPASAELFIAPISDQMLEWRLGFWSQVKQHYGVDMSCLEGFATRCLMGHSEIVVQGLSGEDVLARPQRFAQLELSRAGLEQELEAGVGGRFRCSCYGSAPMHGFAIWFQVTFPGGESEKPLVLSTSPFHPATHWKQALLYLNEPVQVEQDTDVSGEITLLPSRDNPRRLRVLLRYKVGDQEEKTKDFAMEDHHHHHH
structure (smiles),measurement,value
CN(CCN)Cc1n[nH]c2cccc(OCc3ccccc3)c12 [Compound 1],IC50,≤ 100 nM
